The test concerns the target α7 nAChR subtype (Rattus norvegicus, UniProt Q05941). The format is binding. The settings on record: read-out: KD of radioligand.

Broadly, the Kd is a measure of binding affinity in units of concentration.

Chain of α7 nAChR subtype (Q05941 23-502 limits assumed): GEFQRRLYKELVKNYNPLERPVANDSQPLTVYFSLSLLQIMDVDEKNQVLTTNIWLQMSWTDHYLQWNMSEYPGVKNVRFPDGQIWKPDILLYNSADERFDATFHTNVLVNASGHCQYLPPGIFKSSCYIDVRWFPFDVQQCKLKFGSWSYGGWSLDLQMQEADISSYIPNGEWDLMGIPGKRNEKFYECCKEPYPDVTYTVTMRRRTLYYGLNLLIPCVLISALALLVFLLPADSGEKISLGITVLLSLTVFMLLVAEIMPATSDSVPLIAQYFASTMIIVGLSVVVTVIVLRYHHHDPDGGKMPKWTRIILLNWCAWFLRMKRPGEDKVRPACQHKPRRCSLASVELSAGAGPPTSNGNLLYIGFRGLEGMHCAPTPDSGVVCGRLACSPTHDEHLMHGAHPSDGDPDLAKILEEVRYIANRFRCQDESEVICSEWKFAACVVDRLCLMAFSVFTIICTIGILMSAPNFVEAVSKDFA

Consider ^125I-α-Bungarotoxin [^125I-α-BTX], for which the Kd worked out at 1.67 nM.
